Test results as given in ChEMBL document CHEMBL1255361, “Differential antibiotic susceptibility of Mycobacterium abscessus variants in biofilms and macrophages compared to that of planktonic bacteria” (2008).
In brackets after ≈: the same amount, converted by molar mass. Activity calls are given as the source filed them. The rule behind the calls is not given here.

Legend:
[1] = tested on: Mycobacteroides abscessus; assay: Antimicrobial activity against Mycobacterium abscessus 390R after 96 hrs; type: functional
[2] = tested on: Mycobacteroides abscessus; assay: Antimicrobial activity against Mycobacterium abscessus 390S; type: functional
[3] = tested on: Mycobacteroides abscessus; assay: Antimicrobial activity against Mycobacterium abscessus 390S assessed as inhibition of planktonic cell growth in replete medium; type: functional
[4] = tested on: Mycobacteroides abscessus; assay: Antimicrobial activity against Mycobacterium abscessus 390S assessed as inhibition of resuspended biofilm formation in replete medium; type: functional
[5] = tested on: Mycobacteroides abscessus; assay: Antimicrobial activity against Mycobacterium abscessus 390S assessed as inhibition of planktonic cell growth in depleted medium; type: functional
[6] = tested on: Mycobacteroides abscessus; assay: Antimicrobial activity against Mycobacterium abscessus 390S assessed as inhibition of biofilm formation at 64 ug/ml after 24 hrs; type: functional
[7] = tested on: Mycobacteroides abscessus; assay: Bacteriostatic activity against Mycobacterium abscessus 390V infected in human monocyte-derived macrophage at 10 times MIC; type: functional, organism-based
[8] = tested on: Mycobacteroides abscessus; assay: Antimicrobial activity against Mycobacterium abscessus 390V after 96 hrs; type: functional
[9] = tested on: Mycobacteroides abscessus; assay: Bacteriostatic activity against Mycobacterium abscessus 390S assessed as inhibition of planktonic cell growth up to 1024 ug/ml after 24 hrs; type: functional, organism-based
[10] = tested on: Mycolicibacterium fortuitum; assay: Antimicrobial activity against Mycobacterium fortuitum; type: functional
[11] = tested on: Mycobacteroides abscessus; assay: Antimicrobial activity against Mycobacterium abscessus 390S after 96 hrs; type: functional
[12] = tested on: Mycobacteroides abscessus; assay: Antimicrobial activity against Mycobacterium abscessus 390S assessed as inhibition of biofilm formation up to 512 ug/ml after 24 hrs; type: functional
[13] = tested on: Mycobacteroides abscessus; assay: Antimicrobial activity against Mycobacterium abscessus 390S assessed as inhibition of biofilm formation up to 128 ug/ml treated during lag-phase measured after 24 hrs; type: functional, organism-based
[14] = tested on: Mycobacteroides abscessus; assay: Antimicrobial activity against Mycobacterium abscessus 390S assessed as inhibition of biofilm formation up to 128 ug/ml treated during mid log-phase; type: functional
[15] = tested on: Mycobacteroides abscessus; assay: Antimicrobial activity against Mycobacterium abscessus 390S infected in human monocyte-derived macrophage assessed as reduction in viable bacteria count at 10 times MIC by […]; type: functional, organism-based
[16] = tested on: Mycobacteroides abscessus; assay: Bacteriostatic activity against Mycobacterium abscessus 390S infected in human monocyte-derived macrophage assessed as inhibition of planktonic cell growth at 4 ug/ml treated 24 hrs postinfection; type: functional, organism-based
[17] = tested on: Mycobacteroides abscessus; assay: Bacteriostatic activity against Mycobacterium abscessus 390R infected in human monocyte-derived macrophage assessed as inhibition of planktonic cell growth at 4 ug/ml treated 24 hrs postinfection; type: functional, organism-based
[18] = tested on: Mycobacteroides abscessus; assay: Bacteriostatic activity against Mycobacterium abscessus 390V infected in human monocyte-derived macrophage assessed as inhibition of planktonic cell growth at 4 ug/ml treated 24 hrs postinfection; type: functional, organism-based

Row | MIC [1] [µg/mL] | MIC [8] [µg/mL] | MIC [10] [µg/mL] | MIC [11] [µg/mL] | Structure (SMILES) | MBC [2] [µg/mL] | MBC [3] [µg/mL] | MBC [4] [µg/mL] | MBC [5] [µg/mL] | log10cfu [6] | Activity [7] | Activity [9] | log10cfu [12] | Activity [13] | log10cfu [14] | Activity [15] | Activity [16] | Activity [17] | Activity [18]
1 | 2 (≈ 3.42 µM) |  |  |  | NCC[C@H](O)C(=O)N[C@@H]1C[C@H](N)[C@@H](O[C@H]2O[C@H](CN)[C@@H](O)[C@H](O)[C@H]2O)[C@H](O)[C@H]1O[C@H]1O[C@H](CO)[C@@H](O)[C@H](N)[C@H]1O [AMIKACIN] | 64 (≈ 109 µM) | 32 (≈ 54.6 µM) | 64 (≈ 109 µM) | 128 (≈ 219 µM) | 1.1 | Active |  |  |  |  |  |  |  | 
2 |  | 8 (≈ 18.7 µM) | 6.25 (≈ 14.6 µM) |  | CO[C@@]1(NC(=O)Cc2cccs2)C(=O)N2C(C(=O)O)=C(COC(N)=O)CS[C@@H]21 [CEFOXITIN] |  |  |  |  |  | Active | Active |  |  |  |  |  |  | 
3 |  |  |  | 0.25 (≈ 0.334 µM) | CC[C@H]1OC(=O)[C@H](C)[C@@H](O[C@H]2C[C@@](C)(OC)[C@@H](O)[C@H](C)O2)[C@H](C)[C@@H](O[C@@H]2O[C@H](C)C[C@H](N(C)C)[C@H]2O)[C@](C)(OC)C[C@@H](C)C(=O)[C@H](C)[C@@H](O)[C@]1(C)O [CLARITHROMYCIN] | 16 (≈ 21.4 µM) | 16 (≈ 21.4 µM) | 256 (≈ 342 µM) | 256 (≈ 342 µM) |  |  |  | 0.6 | inactive | 1 | Active | Active | Active | Active
